According to patent publication US9018391B2, “Inhibitors of beta-secretase” (Boehringer Ingelheim International GmbH, priority 2012, dated 2015):

How the values were obtained:
[1] = In Vitro Phospholipidosis Assay (Assay 3), Nile red staining; assay type: cell-based, human; settings: human, first effect concentration, U937 cells, read-out: Phospholipidosis FEC IC50 μM (assay 3)
Procedure: In Vitro Phospholipidosis Assay (Assay 3)
The phospholipidogenic potential of test compounds was assayed using the human hematopoetic U937 cell line. The test principle was to analyze the phospholipid content by staining the cells with the fluorescent dye Nile red.
U937 cells were seeded into cell culture plates at 0.5×10^6 cells/mL in RPMI medium containing 10% FBS, 1% DMSO, and 0.005% gentamicin. The cells were cultivated with or without different concentrations of test compound for 48 h under standard culture conditions.
For harvesting, the cells were centrifuged at 130×g for 4 min and washed once with PBS. Then, 2×0.5 mL cell suspensions were prepared for non-fixed cell measurement (0.5 mL for propidium iodide (PI) viability measurement and 0.5 mL for Nile red measurement).
The remaining cells were fixed with 3.7% formaldehyde for 30 min. After a further centrifugation step, cells were resuspended with 1.3 mL Nile red working solution (1 μg/mL) and incubated for 5 min at rt. The cell suspension was washed twice with 3 mL PBS and centrifuged with 130×g for 4 min. The supernatant was discarded and the cells were resuspended with 0.5 mL PBS and kept for flow cytometry measurement.
For Nile red staining of the 0.5 mL non-fixed cell samples, 50 μL of a ready to use Nile red solution (10 μg/mL) were added per sample. Samples were kept on ice for 5 min. Thereafter, they were washed once with 4 mL PBS (4° C., 250×g for 8 min) and finally resuspended in 400 μL PBS and kept for flow cytometry measurement.
For the viability measurement, 12.5 μL of the ready to use PI solution (10 μg/mL) were added to the 0.5 mL non-fixed cell suspension. After 15 min of incubation on ice, the samples were measured by flow cytometry using a Coulter Epics XL/MCL flow cytometer.
The viability of the cells of each sample was determined by flow cytometry measurement of the PI content at channel 2 (568-590 nm). Cut-off gates for the fluorescence-dependent differentiation between live and dead cells were defined based on the analysis of cell culture medium control samples.
Only samples with a cell viability of >=90% relative to control samples were analyzed for phospholipidosis. Each Nile red sample (non-fixed and fixed samples) was measured by flow cytometry at channel 1 (504-541 nm) and channel 4 (660-680 nm).
For each channel, relative Nile red fluorescence intensity of a test sample was calculated compared to control samples and expressed as a percentage of control fluorescence intensity. The assessment of the phospholipidogenic potential and the first effective concentration (FEC) of a test compound was done manually based on the fluorescence intensities at both wavelengths for the fixed cells, as well as for the non-fixed cells.

[2] = target: truncated human beta-secretase, BACE1 (amino acids 1-454) (Homo sapiens (Human), UniProt P56817); assay: BACE1 Assay (Assay 1), fluorescence quench assay; assay type: biochemical; settings: pH 4.4
Procedure: The substrate was dissolved at 1 mg/ml in DMSO.
The assay was performed in the presence of OptiMEM™ (supernatant collected over 24 h and cleared from cellular debris by centrifugation) containing the ectodomain of BACE1, 25 μl water containing the desired 2-fold concentration of test compound and 2% DMSO, 1 μM substrate peptide, 20 mM NaOAc, pH 4.4, and 0.04% Triton-X100 in a total assay volume of 50 μl in a 384 well plate. In general, 25 μl of compound dilution were added to the plate followed by the addition of 10 μl of BACE1 containing OptiMEM™ diluted 1:10 in water with 0.2% Triton X-100. The reaction was started with the addition of 15 μl substrate in NaOAc buffer. The reaction was incubated at rt (dark) in an Envision® multilabel reader (Perkin Elmer) and the cleavage of the substrate was recorded as kinetic for […] at ex: 485 nm, em: 538 nm. Blank wells containing no enzyme were included on each plate.
The intensity of fluorescence was regressed against time in order to derive velocities of reaction in all 384 wells. These velocities were used for calculating percent control using an uninhibited control containing 1% DMSO as 100% and a blank control performed in the absence of enzyme as 0%. IC50 values were calculated by fitting percent control vs. test compound concentration using Assay Explorer®.

Chain of truncated human beta-secretase, BACE1 (amino acids 1-454) (P56817 22-454): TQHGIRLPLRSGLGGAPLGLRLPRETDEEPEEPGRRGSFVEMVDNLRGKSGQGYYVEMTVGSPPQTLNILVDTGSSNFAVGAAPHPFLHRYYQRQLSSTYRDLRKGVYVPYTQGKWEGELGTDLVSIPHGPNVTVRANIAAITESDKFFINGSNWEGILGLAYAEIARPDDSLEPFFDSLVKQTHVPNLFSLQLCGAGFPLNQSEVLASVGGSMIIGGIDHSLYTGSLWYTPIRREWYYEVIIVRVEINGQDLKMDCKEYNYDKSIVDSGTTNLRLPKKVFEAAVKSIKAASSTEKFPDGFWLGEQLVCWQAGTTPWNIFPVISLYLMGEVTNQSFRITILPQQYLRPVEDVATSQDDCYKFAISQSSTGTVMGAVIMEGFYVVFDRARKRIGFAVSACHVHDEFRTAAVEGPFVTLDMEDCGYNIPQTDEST

| SMILES | IC50 [2] [nM] | IC50 at 48 h [1] [µM] |
| --- | --- | --- |
| C[C@@H]1C[C@@]2(Cc3ccc(C#N)cc3[C@]23N=C(N)N(CCC(F)(F)F)C3=O)C[C@H](C)[C@H]1O [Example 1] | 14.6 | 400 |
| C[C@@H]1C[C@@]2(Cc3ccc(C#N)cc3[C@]23N=C(N)N(CC(C)(C)F)C3=O)C[C@H](C)[C@H]1O [Example 2] | 10.3 | 400 |
| C[C@@H]1C[C@@]2(Cc3ccc(C#N)cc3[C@]23N=C(N)N(CC2(F)CCOCC2)C3=O)C[C@H](C)[C@H]1O [Example 4] | 2.7 | 800 |

Now from value to molecule, other results behind:

| IC50 [2] [nM] | SMILES | IC50 at 48 h [1] [µM] |
| --- | --- | --- |
| 3.4 | CC[C@@H]1C[C@@]2(Cc3ccc(C#N)cc3[C@]23N=C(N)N(CC(C)(C)F)C3=O)C[C@H](C)[C@H]1O [Example 7] | 400 |
| 10.7 | CC[C@@H]1C[C@]2(CC[C@H]1O)Cc1ccc(C#N)cc1[C@]21N=C(N)N(CC(C)(C)F)C1=O [Example 9] | 400 |
